Reference: ChEMBL document CHEMBL2016493, “Design, synthesis, synergistic antimicrobial activity and cytotoxicity of 4-aryl substituted 3,4-dihydropyrimidinones of curcumin” (Bioorg Med Chem Lett, 2012)
Activity calls are given as the source filed them. No cut-off for these calls is given here.

Tests used:
Escherichia coli [1] = assay: Antibacterial activity against Escherichia coli ATCC 35218 at 160 uM/ml after 24 hrs by kirby-bauer method; format: functional; conditions: ATCC 35218, 24 h, read-out: IZ
Trichoderma viride [2] = assay: Antifungal activity against Trichoderma viride MTCC 1107 at 80 uM/ml after 48 hrs by paper disc diffusion method; format: functional; conditions: MTCC 1107, 48 h, read-out: IZ
Pseudomonas aeruginosa [3] = assay: Antibacterial activity against Pseudomonas aeruginosa ATCC 15499 at 80 uM/ml after 24 hrs by kirby-bauer method; format: functional; conditions: ATCC 15499, 24 h, read-out: IZ
Aspergillus flavus [4] = assay: Antifungal activity against Aspergillus flavus MTCC 1021 at 20 uM/ml after 48 hrs by paper disc diffusion method; format: functional
Curvularia lunata [5] = assay: Antifungal activity against Curvularia lunata MTCC 581 at 160 uM/ml after 48 hrs by paper disc diffusion method; format: functional; conditions: MTCC 581, 48 h, read-out: IZ
Curvularia lunata [6] = assay: Antifungal activity against Curvularia lunata MTCC 581 at 40 uM/ml after 48 hrs by paper disc diffusion method; format: functional; conditions: MTCC 581, 48 h, read-out: IZ
[7] = test system: Burkholderia pseudomallei; assay: Antibacterial activity against Burkholderia pseudomallei NTCC 10274 at 160 uM/ml after 24 hrs by kirby-bauer method; format: functional; conditions: NTCC 10274, 24 h, read-out: IZ
[8] = test system: Burkholderia pseudomallei; assay: Antibacterial activity against Burkholderia pseudomallei NTCC 10274 at 40 uM/ml after 24 hrs by kirby-bauer method; format: functional; conditions: NTCC 10274, 24 h, read-out: IZ
Aspergillus flavus [9] = assay: Antifungal activity against Aspergillus flavus MTCC 1021 at 40 uM/ml after 48 hrs by paper disc diffusion method; format: functional
QG-56 = assay: Cytotoxicity against human QG56 cells after 48 hrs by MTT assay; format: functional, cell-based
Aspergillus niger [10] = assay: Antifungal activity against Aspergillus niger MTCC 1108 at 40 uM/ml after 48 hrs by paper disc diffusion method; format: functional
Trichoderma viride [11] = assay: Antifungal activity against Trichoderma viride MTCC 1107 at 40 uM/ml after 48 hrs by paper disc diffusion method; format: functional; conditions: for zone of inhibition: MTCC 1107, 48 h, read-out: IZ
Aspergillus niger [12] = assay: Antifungal activity against Aspergillus niger MTCC 1108 at 20 uM/ml after 48 hrs by paper disc diffusion method; format: functional
Pseudomonas aeruginosa [13] = assay: Antibacterial activity against Pseudomonas aeruginosa ATCC 15499 at 40 uM/ml after 24 hrs by kirby-bauer method; format: functional; conditions: ATCC 15499, 24 h, read-out: IZ
Trichoderma viride [14] = assay: Antifungal activity against Trichoderma viride MTCC 1107 at 160 uM/ml after 48 hrs by paper disc diffusion method; format: functional; conditions: MTCC 1107, 48 h, read-out: IZ
Escherichia coli [15] = assay: Antibacterial activity against Escherichia coli ATCC 35218 at 80 uM/ml after 24 hrs by kirby-bauer method; format: functional; conditions: ATCC 35218, 24 h, read-out: IZ
Pseudomonas aeruginosa [16] = assay: Antibacterial activity against Pseudomonas aeruginosa ATCC 15499 at 20 uM/ml after 24 hrs by kirby-bauer method; format: functional; conditions: ATCC 15499, 24 h, read-out: IZ
[17] = test system: Burkholderia pseudomallei; assay: Antibacterial activity against Burkholderia pseudomallei NTCC 10274 at 80 uM/ml after 24 hrs by kirby-bauer method; format: functional; conditions: NTCC 10274, 24 h, read-out: IZ
Pseudomonas aeruginosa [18] = assay: Antibacterial activity against Pseudomonas aeruginosa ATCC 15499 at 160 uM/ml after 24 hrs by kirby-bauer method; format: functional; conditions: for zone of inhibition at 160 µM: ATCC 15499, 24 h, read-out: IZ
Staphylococcus aureus = assay: Antibacterial activity against Staphylococcus aureus ATCC 11632 at 160 uM/ml after 24 hrs by kirby-bauer method; format: functional
Trichoderma viride [19] = assay: Antifungal activity against Trichoderma viride MTCC 1107 at 20 uM/ml after 48 hrs by paper disc diffusion method; format: functional; conditions: for zone of inhibition at 20 µM: MTCC 1107, 48 h, read-out: IZ
Escherichia coli [20] = assay: Antibacterial activity against Escherichia coli ATCC 35218 at 20 uM/ml after 24 hrs by kirby-bauer method; format: functional; conditions: for zone of inhibition at 20 µM: ATCC 35218, 24 h, read-out: IZ
Escherichia coli [21] = assay: Antibacterial activity against Escherichia coli ATCC 35218 at 40 uM/ml after 24 hrs by kirby-bauer method; format: functional; conditions: ATCC 35218, 24 h, read-out: IZ
Curvularia lunata [22] = assay: Antifungal activity against Curvularia lunata MTCC 581 at 80 uM/ml after 48 hrs by paper disc diffusion method; format: functional; conditions: MTCC 581, 48 h, read-out: IZ
Aspergillus niger [23] = assay: Antifungal activity against Aspergillus niger MTCC 1108 at 80 uM/ml after 48 hrs by paper disc diffusion method; format: functional; conditions: MTCC 1108, 48 h, read-out: IZ
Salmonella typhimurium [24] = assay: Antibacterial activity against Salmonella typhimurium ATCC 23564 at 160 uM/ml after 24 hrs by kirby-bauer method; format: functional; conditions: for inhibition zone (IZ): Salmonella enterica subsp. enterica serovar Typhimurium
Curvularia lunata [25] = assay: Antifungal activity against Curvularia lunata MTCC 581 at 20 uM/ml after 48 hrs by paper disc diffusion method; format: functional; conditions: MTCC 581, 48 h, read-out: IZ
[26] = test system: Burkholderia pseudomallei; assay: Antibacterial activity against Burkholderia pseudomallei NTCC 10274 at 20 uM/ml after 24 hrs by kirby-bauer method; format: functional; conditions: for zone of inhibition at 20 µM: NTCC 10274, 24 h, read-out: IZ
Aspergillus flavus [27] = assay: Antifungal activity against Aspergillus flavus MTCC 1021 at 160 uM/ml after 48 hrs by paper disc diffusion method; format: functional; conditions: for zone of inhibition at 160 µM: MTCC 1021, 48 h, read-out: IZ
Aspergillus niger [28] = assay: Antifungal activity against Aspergillus niger MTCC 1108 at 160 uM/ml after 48 hrs by paper disc diffusion method; format: functional; conditions: for zone of inhibition at 160 µM: MTCC 1108, 48 h, read-out: IZ
Aspergillus flavus [29] = assay: Antifungal activity against Aspergillus flavus MTCC 1021 at 80 uM/ml after 48 hrs by paper disc diffusion method; format: functional
Salmonella typhimurium [30] = assay: Antibacterial activity against Salmonella typhimurium ATCC 23564 at 80 uM/ml after 24 hrs by kirby-bauer method; format: functional, Salmonella enterica subsp. enterica serovar Typhimurium; conditions: Salmonella enterica, ATCC 23564, 24 h; read-out: IZ
Salmonella typhimurium [31] = assay: Antibacterial activity against Salmonella typhimurium ATCC 23564 at 20 uM/ml after 24 hrs by kirby-bauer method; format: functional, Salmonella enterica subsp. enterica serovar Typhimurium; conditions: Salmonella enterica, ATCC 23564, 24 h; read-out: IZ
Salmonella typhimurium [32] = assay: Antibacterial activity against Salmonella typhimurium ATCC 23564 at 40 uM/ml after 24 hrs by kirby-bauer method; format: functional, Salmonella enterica subsp. enterica serovar Typhimurium; conditions: Salmonella enterica, ATCC 23564, 24 h; read-out: IZ

Row | Structure (SMILES) | zone of inhibition at 160 µM (Escherichia coli [1]) | zone of inhibition at 80 µM (Trichoderma viride [2]) | zone of inhibition at 80 µM (Pseudomonas aeruginosa [3]) | inhibition zone (IZ) (Aspergillus flavus [4]) | zone of inhibition at 160 µM (Curvularia lunata [5]) | zone of inhibition at 40 µM (Curvularia lunata [6]) | zone of inhibition at 160 µM [7] | zone of inhibition at 40 µM [8] | inhibition zone (IZ) (Aspergillus flavus [9]) | IC50 (QG-56) | zone of inhibition (Trichoderma viride [11]) | zone of inhibition at 160 µM (Trichoderma viride [14]) | zone of inhibition at 80 µM (Escherichia coli [15]) | zone of inhibition at 80 µM [17] | IC50 (HCT-116) | inhibition zone (IZ) (Staphylococcus aureus) | zone of inhibition at 40 µM (Escherichia coli [21]) | zone of inhibition at 80 µM (Curvularia lunata [22]) | zone of inhibition at 20 µM (Curvularia lunata [25]) | IC50 (HepG2) | further results
1 | COc1ccc(C2NC(=S)NC(/C=C/c3ccc(O)c(OC)c3)=C2C(=O)/C=C/c2ccc(O)c(OC)c2)cc1 (stereo not drawn) | 18 mm | 19 mm | 20 mm | inactive | 24 mm | 18 mm | 24 mm | 19 mm | inactive | 50 uM/ml | 18 mm | 23 mm | 14 mm | 21 mm | 50 uM/ml | inactive | 9 mm | 21 mm | 16 mm | 100 uM/ml | inhibition zone (IZ) (Aspergillus niger [10]): inactive; inhibition zone (IZ) (Aspergillus niger [12]): inactive; zone of inhibition at 40 µM (Pseudomonas aeruginosa [13]): 19 mm; zone of inhibition at 20 µM (Pseudomonas aeruginosa [16]): 18 mm; zone of inhibition at 160 µM (Pseudomonas aeruginosa [18]): 23 mm; zone of inhibition at 20 µM (Trichoderma viride [19]): 17 mm; inhibition zone (IZ) (Escherichia coli [20]): inactive; zone of inhibition at 80 µM (Aspergillus niger [23]): 9 mm; inhibition zone (IZ) (Salmonella typhimurium [24]): inactive; zone of inhibition at 20 µM [26]: 16 mm; zone of inhibition at 160 µM (Aspergillus flavus [27]): 9 mm; zone of inhibition at 160 µM (Aspergillus niger [28]): 11 mm; inhibition zone (IZ) (Aspergillus flavus [29]): inactive
2 | COc1cc(/C=C/C(=O)C2=C(/C=C/c3ccc(O)c(OC)c3)NC(=O)NC2c2ccccc2O)ccc1O (stereo not drawn) | 22 mm | 9 mm | 21 mm | inactive | 23 mm | 20 mm | 19 mm | 11 mm | inactive | 100 uM/ml | – | 11 mm | 19 mm | 13 mm | 100 uM/ml | inactive | 18 mm | 21 mm | 17 mm | 100 uM/ml | zone of inhibition at 40 µM (Aspergillus niger [10]; MTCC 1108, 48 h, read-out: IZ): 9 mm; inhibition zone (IZ) (Trichoderma viride [11]): inactive; inhibition zone (IZ) (Aspergillus niger [12]): inactive; zone of inhibition at 40 µM (Pseudomonas aeruginosa [13]): 19 mm; zone of inhibition at 20 µM (Pseudomonas aeruginosa [16]): 18 mm; zone of inhibition at 160 µM (Pseudomonas aeruginosa [18]): 24 mm; inhibition zone (IZ) (Trichoderma viride [19]): inactive; zone of inhibition at 20 µM (Escherichia coli [20]): 15 mm; zone of inhibition at 80 µM (Aspergillus niger [23]): 11 mm; inhibition zone (IZ) (Salmonella typhimurium [24]): inactive; inhibition zone (IZ) [26]: inactive; zone of inhibition at 160 µM (Aspergillus flavus [27]): 9 mm; zone of inhibition at 160 µM (Aspergillus niger [28]): 13 mm; inhibition zone (IZ) (Aspergillus flavus [29]): inactive
3 | COc1cc(/C=C/C(=O)C2=C(/C=C/c3ccc(O)c(OC)c3)NC(=O)NC2c2ccc(O)c(OC)c2)ccc1O (stereo not drawn) | 19 mm | 18 mm | – | – | 21 mm | 17 mm | 16 mm | 14 mm | – | 50 uM/ml | 16 mm | 21 mm | 17 mm | 16 mm | 100 uM/ml | inactive | 14 mm | 18 mm | 13 mm | 25 uM/ml | zone of inhibition at 80 µM (Salmonella typhimurium [30]): 19 mm; zone of inhibition at 20 µM (Salmonella typhimurium [31]): 13 mm; inhibition zone (IZ) (Pseudomonas aeruginosa [18]): inactive; zone of inhibition at 20 µM (Trichoderma viride [19]): 15 mm; zone of inhibition at 20 µM (Escherichia coli [20]): 11 mm; zone of inhibition at 160 µM (Salmonella typhimurium [24]; Salmonella enterica, ATCC 23564, 24 h, read-out: IZ): 22 mm; zone of inhibition at 20 µM [26]: 10 mm; inhibition zone (IZ) (Aspergillus flavus [27]): inactive; zone of inhibition at 40 µM (Salmonella typhimurium [32]): 16 mm; inhibition zone (IZ) (Aspergillus niger [28]): inactive
